What was measured:
Format in all cases: functional
[1] = Cytotoxicity against human CCRF-CEM cells assessed as growth inhibition after 48 hrs by SRB assay
[2] = Cytotoxicity against human K562 cells assessed as growth inhibition after 48 hrs by SRB assay; conditions: K562, 48 h
[3] = Cytotoxicity against human MOLT4 cells assessed as growth inhibition after 48 hrs by SRB assay; conditions: MOLT-4, 48 h
[4] = Cytotoxicity against human SR cells assessed as growth inhibition after 48 hrs by SRB assay
[5] = Cytotoxicity against human HOP62 cells assessed as growth inhibition after 48 hrs by SRB assay; conditions: HOP-62, 48 h
[6] = Cytotoxicity against human NCI-H23 cells assessed as growth inhibition after 48 hrs by SRB assay; conditions: NCI-H23, 48 h
[7] = Cytotoxicity against human NCI-H460 cells assessed as growth inhibition after 48 hrs by SRB assay; conditions: NCI-H460, 48 h
[8] = Cytotoxicity against human HCT15 cells assessed as growth inhibition after 48 hrs by SRB assay; conditions: HCT-15, 48 h
[9] = Cytotoxicity against human SW620 cells assessed as growth inhibition after 48 hrs by SRB assay; conditions: SW-620, 48 h
[10] = Cytotoxicity against human MDA-MB-435 cells assessed as growth inhibition after 48 hrs by SRB assay; conditions: MDA-MB-435, 48 h, read-out: LD50 (the source's name)
[11] = Cytotoxicity against human SK-MEL-28 cells assessed as growth inhibition after 48 hrs by SRB assay; conditions: SK-MEL-28, 48 h
[12] = Cytotoxicity against human UACC62 cells assessed as growth inhibition after 48 hrs by SRB assay; conditions: UACC-62, 48 h
[13] = Cytotoxicity against human OVCAR4 cells assessed as growth inhibition after 48 hrs by SRB assay; conditions: OVCAR-4, 48 h
[14] = Cytotoxicity against human A498 cells assessed as growth inhibition after 48 hrs by SRB assay; conditions: A498, 48 h
[15] = Cytotoxicity against human ACHN cells assessed as growth inhibition after 48 hrs by SRB assay
[16] = Cytotoxicity against human DU145 cells assessed as growth inhibition after 48 hrs by SRB assay; conditions: DU-145, 48 h
[17] = Cytotoxicity against human MCF7 cells assessed as growth inhibition after 48 hrs by SRB assay; conditions: MCF7, 48 h
[18] = Cytotoxicity against human Hs 578T cells assessed as growth inhibition after 48 hrs by SRB assay
[19] = Cytotoxicity against human BT549 cells assessed as growth inhibition after 48 hrs by SRB assay; conditions: BT-549, 48 h
[20] = Cytotoxicity against human MDA-MB-468 cells assessed as growth inhibition after 48 hrs by SRB assay; conditions: MDA-MB-468, 48 h
[21] = Cytotoxicity against human A549 cells assessed as assessed as growth inhibition at 10^-5 M after 48 hrs by SRB assay relative to control; conditions: A549, 48 h, read-out: GI
[22] = Cytotoxicity against human NCI-H226 cells assessed as assessed as growth inhibition at 10^-5 M after 48 hrs by SRB assay relative to control; conditions: NCI-H226, 48 h, read-out: GI
[23] = Cytotoxicity against human NCI-H460 cells assessed as assessed as growth inhibition at 10^-5 M after 48 hrs by SRB assay relative to control; conditions: NCI-H460, 48 h, read-out: GI
[24] = Cytotoxicity against human SNB75 cells assessed as assessed as growth inhibition at 10^-5 M after 48 hrs by SRB assay relative to control; conditions: SNB-75, 48 h, read-out: GI
[25] = Cytotoxicity against human U251 cells assessed as assessed as growth inhibition at 10^-5 M after 48 hrs by SRB assay relative to control; conditions: U-251, 48 h, read-out: GI
[26] = Cytotoxicity against human MALME-3M cells assessed as assessed as growth inhibition at 10^-5 M after 48 hrs by SRB assay relative to control; conditions: read-out: GI
[27] = Cytotoxicity against human SK-MEL-28 cells assessed as assessed as growth inhibition at 10^-5 M after 48 hrs by SRB assay relative to control; conditions: SK-MEL-28, 48 h, read-out: GI
[28] = Cytotoxicity against human OVCAR3 cells assessed as assessed as growth inhibition at 10^-5 M after 48 hrs by SRB assay relative to control; conditions: OVCAR-3, 48 h, read-out: GI
[29] = Cytotoxicity against human NCI-ADR-RES cells assessed as assessed as growth inhibition at 10^-5 M after 48 hrs by SRB assay relative to control; conditions: read-out: GI
[30] = Cytotoxicity against human SKOV3 cells assessed as assessed as growth inhibition at 10^-5 M after 48 hrs by SRB assay relative to control; conditions: SK-OV-3, 48 h, read-out: GI
[31] = Cytotoxicity against human A498 cells assessed as assessed as growth inhibition at 10^-5 M after 48 hrs by SRB assay relative to control; conditions: A498, 48 h, read-out: GI
[32] = Cytotoxicity against human BT549 cells assessed as assessed as growth inhibition at 10^-5 M after 48 hrs by SRB assay relative to control; conditions: BT-549, 48 h, read-out: GI
[33] = Cytotoxicity against human T47D cells assessed as assessed as growth inhibition at 10^-5 M after 48 hrs by SRB assay relative to control; conditions: read-out: GI
[34] = Cytotoxicity against human NCI-H322M cells assessed as assessed as growth inhibition at 10^-5 M after 48 hrs by SRB assay relative to control; conditions: read-out: GI
[35] = read-out: LD50 (the source's name)

## O=C1Cc2cc(CCN3CCNCC3)c(Cl)cc2N1
[1]
  GI50: 2.98 µM
  TGI: > 1 µM
[1]; [35]
  CC50: > 1 µM
[2]
  GI50: 6.24 µM
  TGI: > 1 µM
[2]; [35]
  CC50: > 1 µM
[3]
  GI50: 1 µM
  TGI: > 1 µM
[3]; [35]
  CC50: > 1 µM
[4]
  GI50: 6.2 µM
  TGI: > 1 µM
[4]; [35]
  CC50: > 1 µM
[5]
  GI50: 1.93 µM
  TGI: > 1 µM
[5]; [35]
  CC50: > 1 µM
[6]
  GI50: 4.64 µM
  TGI: > 1 µM
[6]; [35]
  CC50: > 1 µM
[7]
  GI50: 2.29 µM
  TGI: > 1 µM
[7]; [35]
  CC50: > 1 µM
[8]
  GI50: 6.23 µM
  TGI: > 1 µM
[8]; [35]
  CC50: > 1 µM
[9]
  GI50: 4.97 µM
  TGI: > 1 µM
[9]; [35]
  CC50: > 1 µM
[10]
  CC50: > 1 µM
[11]
  GI50: 3.7 µM
  TGI: > 1 µM
[11]; [35]
  CC50: > 1 µM
[12]
  GI50: 6.54 µM
  TGI: > 1 µM
[12]; [35]
  CC50: > 1 µM
[13]
  GI50: 8.78 µM
  TGI: > 1 µM
[13]; [35]
  CC50: > 1 µM
[14]
  GI50: 2.85 µM
  TGI: > 1 µM
[14]; [35]
  CC50: > 1 µM
[15]
  GI50: 1 µM
  TGI: > 1 µM
[15]; [35]
  CC50: > 1 µM
[16]
  GI50: 1.99 µM
  TGI: > 1 µM
[16]; [35]
  CC50: > 1 µM
[17]
  GI50: 3.65 µM
  TGI: > 1 µM
[17]; [35]
  CC50: > 1 µM
[18]
  GI50: 1.57 µM
  TGI: > 1 µM
[18]; [35]
  CC50: > 1 µM
[19]
  GI50: 8.18 µM
  TGI: > 1 µM
[19]; [35]
  CC50: > 1 µM
[20]
  GI50: 2.24 µM
  TGI: 7.42 µM
[20]; [35]
  CC50: > 1 µM
[21]
  inhibition of growth at 10 µM: 51.1%
[22]
  inhibition of growth at 10 µM: 19.4%
[23]
  inhibition of growth at 10 µM: 25.7%
[24]
  inhibition of growth at 10 µM: 38.6%
[25]
  inhibition of growth at 10 µM: 43%
[26]
  inhibition of growth at 10 µM: 19.6%
[27]
  inhibition of growth at 10 µM: 42.2%
[28]
  inhibition of growth at 10 µM: 17.2%
[29]
  inhibition of growth at 10 µM: 51.6%
[30]
  inhibition of growth at 10 µM: 33.2%
[31]
  inhibition of growth at 10 µM: 33.9%
[32]
  inhibition of growth at 10 µM: 40.9%
[33]
  inhibition of growth at 10 µM: 17.3%
[34]
  inhibition of growth at 10 µM: 19.3%

Reference: ChEMBL document CHEMBL3856212, “Synthesis, anti-proliferative and genotoxicity studies of 6-chloro-5-(2-substituted-ethyl)-1,3-dihydro-2H-indol-2-ones and 6-chloro-5-(2-chloroethyl)-3-(alkyl/ary-2-ylidene)indolin-2-ones” (Eur J Med Chem, 2016)
